Results published in patent publication US10030020B2, “Spirocycle compounds and methods of making and using same” (Abide Therapeutics, Inc., priority 2016, dated 2018).
Like-named read-outs stand apart in the source and are kept apart here.

Key:
Assay type in all cases: biochemical
MAGL = MAGL (Mus musculus (Mouse), UniProt O35678); test: In vitro competitive activity-based protein profiling (mouse brain membrane fraction or cell lysates), MAGL band; details: for inhibition at 1 µM: read-out: MAGL % Inh 1 μM (mouse); for IC50: competitive ABPP
MAGL, sequence (O35678 whole entry): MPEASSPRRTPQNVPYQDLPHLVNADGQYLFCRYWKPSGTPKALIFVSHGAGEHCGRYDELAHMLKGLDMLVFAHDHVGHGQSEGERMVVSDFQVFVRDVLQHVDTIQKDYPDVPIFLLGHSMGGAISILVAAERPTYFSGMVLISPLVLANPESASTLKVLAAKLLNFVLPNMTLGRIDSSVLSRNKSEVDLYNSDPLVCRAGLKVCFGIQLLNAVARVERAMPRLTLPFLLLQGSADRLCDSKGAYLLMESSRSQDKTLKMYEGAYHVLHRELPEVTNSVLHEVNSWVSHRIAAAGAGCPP
Description: (§1) In Vitro Competitive Activity-Based Protein Profiling.
(§2) Proteomes (mouse brain membrane fraction or cell lysates) (50 μL, 1.0 mg/mL total protein concentration) were preincubated with varying concentrations of inhibitors at 37° C. After 30 min, FP—Rh (1.0 μL, 50 μM in DMSO) was added and the mixture was incubated for another 30 min at 37° C. Reactions were quenched with SDS loading buffer (50 μL-4×) and run on SDS-PAGE.

ABHD6 = ABHD6 (Mus musculus (Mouse), UniProt Q8R2Y0); test: In vitro competitive activity-based protein profiling (mouse brain membrane fraction or cell lysates), ABHD6 band; details: for inhibition at 1 µM: read-out: ABHD6 % Inh 1 μM (mouse); for IC50: competitive ABPP
ABHD6, sequence (Q8R2Y0 whole entry): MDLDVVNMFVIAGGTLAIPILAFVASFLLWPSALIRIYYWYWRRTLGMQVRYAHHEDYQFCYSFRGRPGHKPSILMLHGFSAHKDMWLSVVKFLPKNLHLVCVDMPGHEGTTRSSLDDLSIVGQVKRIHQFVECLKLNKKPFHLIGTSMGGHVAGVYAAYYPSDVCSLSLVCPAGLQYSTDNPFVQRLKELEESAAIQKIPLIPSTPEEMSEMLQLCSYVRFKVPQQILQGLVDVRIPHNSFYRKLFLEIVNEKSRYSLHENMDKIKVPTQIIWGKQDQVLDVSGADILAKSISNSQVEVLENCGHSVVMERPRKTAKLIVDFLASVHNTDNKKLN
Description: as §1
as §2, with “SDS-PAGE. Following gel imaging, serine hydrolase activity was determined by measuring fluorescent intensity of gel bands corresponding to MAGL, ABHD6 and FAAH using ImageJ 1.43u software.” for “SDS-PAGE.”

FAAH = FAAH (Mus musculus (Mouse), UniProt O08914); test: In vitro competitive activity-based protein profiling (mouse brain membrane fraction or cell lysates), FAAH band; details: for inhibition at 1 µM: read-out: FAAH % Inh 1 μM (mouse); for IC50: competitive ABPP
FAAH, sequence (O08914 whole entry): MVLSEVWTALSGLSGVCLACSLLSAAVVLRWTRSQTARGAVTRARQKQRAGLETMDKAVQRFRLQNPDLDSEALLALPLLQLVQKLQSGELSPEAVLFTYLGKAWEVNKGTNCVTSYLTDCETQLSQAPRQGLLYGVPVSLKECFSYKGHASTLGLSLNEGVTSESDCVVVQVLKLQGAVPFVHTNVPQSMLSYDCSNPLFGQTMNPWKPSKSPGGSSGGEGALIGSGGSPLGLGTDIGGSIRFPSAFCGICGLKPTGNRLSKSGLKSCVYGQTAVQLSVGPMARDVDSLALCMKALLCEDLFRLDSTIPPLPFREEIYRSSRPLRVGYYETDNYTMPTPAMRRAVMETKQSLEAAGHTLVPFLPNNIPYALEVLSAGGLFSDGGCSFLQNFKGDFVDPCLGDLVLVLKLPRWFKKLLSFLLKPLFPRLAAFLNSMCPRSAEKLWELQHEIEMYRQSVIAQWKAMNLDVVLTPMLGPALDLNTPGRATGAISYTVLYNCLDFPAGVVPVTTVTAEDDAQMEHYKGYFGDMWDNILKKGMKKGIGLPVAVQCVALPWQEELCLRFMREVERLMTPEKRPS
Description: as §1
as §2, with “SDS-PAGE. Following gel imaging, serine hydrolase activity was determined by measuring fluorescent intensity of gel bands corresponding to MAGL, ABHD6 and FAAH using ImageJ 1.43u software.” for “SDS-PAGE.”

Structure (SMILES) | inhibition at 1 µM (MAGL; mouse proteome) | IC50 (MAGL; mouse proteome) | inhibition at 1 µM (ABHD6; mouse proteome) | IC50 (ABHD6; mouse proteome) | inhibition at 1 µM (FAAH; mouse proteome) | IC50 (FAAH; mouse proteome) | inhibition at 1 µM (MAGL; mouse) | inhibition at 1 µM (ABHD6; mouse) | inhibition at 1 µM (FAAH; mouse)
O=C(OC(C(F)(F)F)C(F)(F)F)N1CCC2(CCN(Cc3cccc4c3CN(C3CC3)CC4)C2)CC1 [Example 163, 1,1,1,3,3,3-Hexafluoropropan-2-yl 2-((2-cyclopropyl-1,2,3,4-tetrahydroisoquinolin-8-yl)methyl)-2,8-diazaspiro[4.5]decane-8-carboxylate] | > 75% | < 100 nM | 25 to 75% | 100 to 1000 nM | < 25% | > 1000 nM |  |  | 
CC1(C)CC2(CCN(C(=O)OC(C(F)(F)F)C(F)(F)F)CC2)CN1Cc1cc(Cl)ccc1N1CCOCC1 [Example 187, 1,1,1,3,3,3-Hexafluoropropan-2-yl 2-(5-chloro-2-morpholinobenzyl)-3,3-dimethyl-2,8-diazaspiro[4.5]decane-8-carboxylate] | > 75% | < 100 nM | ≥ 75% | 100 to 1000 nM | < 25% | > 1000 nM |  |  | 
COc1ccccc1CN1CCCC12CCN(C(=O)OC(C(F)(F)F)C(F)(F)F)CC2 [Example 3, 1,1,1,3,3,3-Hexafluoropropan-2-yl 1-(2-methoxybenzyl)-1,8-diazaspiro[4.5]decane-8-carboxylate] | > 75% | 100 to 1000 nM | < 25% | > 1000 nM | < 25% | > 1000 nM |  |  | 
CC(C)CN1CCc2cccc(CN3CCC4(CCN(C(=O)OC(C(F)(F)F)C(F)(F)F)CC4)C3)c2C1 [Example 164, 1,1,1,3,3,3-Hexafluoropropan-2-yl 2-((2-isobutyl-1,2,3,4-tetrahydroisoquinolin-8-yl)methyl)-2,8-diazaspiro[4.5]decane-8-carboxylate] | > 75% | < 100 nM | ≥ 75% | 100 to 1000 nM | < 25% | > 1000 nM |  |  | 
CCOc1ccccc1CN1CCCC12CCN(C(=O)OC(C(F)(F)F)C(F)(F)F)CC2 [Example 6, 1,1,1,3,3,3-Hexafluoropropan-2-yl 1-(2-ethoxybenzyl)-1,8-diazaspiro[4.5]decane-8-carboxylate] |  | 100 to 1000 nM |  | > 1000 nM |  | > 1000 nM |  |  | 
O=C(OC(C(F)(F)F)C(F)(F)F)N1CCC2(CCN(Cc3c(N4CCCC4)cccc3C(F)(F)F)C2)CC1 [Example 59, 1,1,1,3,3,3-Hexafluoropropan-2-yl 2-(2-(pyrrolidin-1-yl)-6-(trifluoromethyl)benzyl)-2,8-diazaspiro[4.5]decane-8-carboxylate] | > 75% | 100 to 1000 nM | < 25% | > 1000 nM | < 25% | > 1000 nM |  |  | 
O=C(OC(C(F)(F)F)C(F)(F)F)N1CCC2(CCCN2Cc2ccc(OCCN3CCOCC3)cc2)CC1 [Example 14, 1,1,1,3,3,3-Hexafluoropropan-2-yl 1-(4-(2-morpholinoethoxy)benzyl)-1,8-diazaspiro[4.5]decane-8-carboxylate] | > 75% |  | < 25% |  | < 25% |  |  |  | 
CC1(C)CC2(CCN(C(=O)OC(C(F)(F)F)C(F)(F)F)CC2)CN1Cc1cc(Cl)cc(N2CCOCC2)c1 [Example 186, 1,1,1,3,3,3-Hexafluoropropan-2-yl 2-(3-chloro-5-morpholinobenzyl)-3,3-dimethyl-2,8-diazaspiro[4.5]decane-8-carboxylate] | > 75% | 100 to 1000 nM | 25 to 75% | 100 to 1000 nM | < 25% | > 1000 nM |  |  | 
O=C(OC(C(F)(F)F)C(F)(F)F)N1CCC2(CCN(Cc3ccc(C(F)(F)F)c(N4CCOCC4)c3)C2)CC1 [Example 156, 1,1,1,3,3,3-Hexafluoropropan-2-yl 2-(3-morpholino-4-(trifluoromethyl)benzyl)-2,8-diazaspiro[4.5]decane-8-carboxylate] | > 75% | < 100 nM | ≥ 75% | 100 to 1000 nM | < 25% | > 1000 nM |  |  | 
O=C(OC(C(F)(F)F)C(F)(F)F)N1CCC2(CCCN2Cc2cc(N3CCN(C4CC4)CC3)cc(C(F)(F)F)c2)CC1 [Example 41, 1,1,1,3,3,3-Hexafluoropropan-2-yl 1-(3-(4-cyclopropylpiperazin-1-yl)-5-(trifluoromethyl)benzyl)-1,8-diazaspiro[4.5]decane-8-carboxylate] | > 75% | < 100 nM | < 25% | > 1000 nM | < 25% | > 1000 nM |  |  | 
O=C(COc1cc(C(F)(F)F)ccc1CN1CCCC12CCN(C(=O)OC(C(F)(F)F)C(F)(F)F)CC2)N1CCCC1 [Example 167, 1,1,1,3,3,3-Hexafluoropropan-2-yl 1-(2-(2-oxo-2-(pyrrolidin-1-yl)ethoxy)-4-(trifluoromethyl)benzyl)-1,8-diazaspiro[4.5]decane-8-carboxylate] | > 75% | < 100 nM | 25 to 75% | > 1000 nM | < 25% | > 1000 nM |  |  | 
CC1(C)CC2(CCN(C(=O)OC(C(F)(F)F)C(F)(F)F)CC2)CN1Cc1c(N2CCC3(CCOCC3)C2)cccc1C(F)(F)F [Example 56, 1,1,1,3,3,3-Hexafluoropropan-2-yl 2-(2-(8-oxa-2-azaspiro[4.5]decan-2-yl)-6-(trifluoromethyl)benzyl)-3,3-dimethyl-2,8-diazaspiro[4.5]decane-8-carboxylate] | 25 to 75% | 100 to 1000 nM | < 25% | > 1000 nM | < 25% | > 1000 nM |  |  | 
CCN1CCN(c2cc(Cl)ccc2CN2CCCC23CCN(C(=O)OC(C(F)(F)F)C(F)(F)F)CC3)CC1 [Example 98, 1,1,1,3,3,3-Hexafluoropropan-2-yl 1-(4-chloro-2-(4-ethylpiperazin-1-yl)benzyl)-1,8-diazaspiro[4.5]decane-8-carboxylate] | > 75% | 100 to 1000 nM | < 25% | > 1000 nM | < 25% | > 1000 nM |  |  | 
O=C(O)C1CCN(c2cc(Cl)ccc2CN2CCC3(CCN(C(=O)OC(C(F)(F)F)C(F)(F)F)CC3)C2)CC1 [Example 118, 1-(5-chloro-2-((8-(((1,1,1,3,3,3-hexafluoropropan-2-yl)oxy)carbonyl)-2,8-diazaspiro[4.5]decan-2-yl)methyl)phenyl)piperidine-4-carboxylic acid] |  |  | < 25% | > 1000 nM | < 25% | > 1000 nM |  |  | 
O=C(OC(C(F)(F)F)C(F)(F)F)N1CCC2(CCCN2Cc2cc(N3CCC(C(F)(F)F)CC3)cc(C(F)(F)F)c2)CC1 [Example 44, 1,1,1,3,3,3-Hexafluoropropan-2-yl 1-(3-(trifluoromethyl)-5-(4-(trifluoromethyl)piperidin-1-yl)benzyl)-1,8-diazaspiro[4.5]decane-8-carboxylate] |  |  |  | > 1000 nM |  | > 1000 nM |  |  | 
O=C(O)c1ccc(CN2CCCC23CCN(C(=O)OC(C(F)(F)F)C(F)(F)F)CC3)cc1C(F)(F)F [Example 182, 4-((8-((1,1,1,3,3,3-Hexafluoropropan-2-yloxy)carbonyl)-1,8-diazaspiro[4.5]decan-1-yl)methyl)-2-(trifluoromethyl)benzoic acid] |  |  | < 25% | > 1000 nM | < 25% | > 1000 nM |  |  | 

Further lines, results first:

inhibition at 1 µM (MAGL; mouse proteome) | IC50 (MAGL; mouse proteome) | inhibition at 1 µM (ABHD6; mouse proteome) | IC50 (ABHD6; mouse proteome) | inhibition at 1 µM (FAAH; mouse proteome) | IC50 (FAAH; mouse proteome) | inhibition at 1 µM (MAGL; mouse) | inhibition at 1 µM (ABHD6; mouse) | inhibition at 1 µM (FAAH; mouse) | Structure (SMILES)
 |  |  |  |  |  | 25 to 75% | 25 to 75% | < 25% | O=C(O)c1cccc(CN2CCCC23CCN(C(=O)OC(C(F)(F)F)C(F)(F)F)CC3)c1 [Example 242]
 |  |  |  |  |  | > 75% | 25 to 75% | < 25% | NC(=O)C1CCN(c2cc(C(F)(F)F)ccc2CN2CCCC23CCN(C(=O)OC(C(F)(F)F)C(F)(F)F)CC3)CC1 [Example 273]
 |  |  |  |  |  |  | < 25% | < 25% | O=C(O)c1cc(CN2CCCC23CCN(C(=O)OC(C(F)(F)F)C(F)(F)F)CC3)ccc1Cl [Example 266]
 |  |  |  |  |  |  | 25 to 75% | < 25% | O=C(O)C1CCN(c2cc(F)ccc2CN2CCC3(CCN(C(=O)OC(C(F)(F)F)C(F)(F)F)CC3)C2)CC1 [Example 237]
 |  |  |  |  |  |  | < 25% | < 25% | Cc1cc(CN2CCCC23CCN(C(=O)OC(C(F)(F)F)C(F)(F)F)CC3)cc(C(=O)O)c1 [Example 243]
 |  |  |  |  |  |  | 25 to 75% | < 25% | O=C(O)c1cc(CN2CCC3(CCN(C(=O)OC(C(F)(F)F)C(F)(F)F)CC3)C2)ccc1C(F)(F)F [Example 255]
 |  |  |  |  |  |  | < 25% | < 25% | CC1(C(=O)O)CN(c2cc(C(F)(F)F)ccc2CN2CCCC23CCN(C(=O)OC(C(F)(F)F)C(F)(F)F)CC3)CCO1 (stereo not shown) [Example 260]
 |  |  |  |  |  |  | 25 to 75% | < 25% | O=C(O)C1CCN(Cc2cc(CN3CCC4(CCN(C(=O)OC(C(F)(F)F)C(F)(F)F)CC4)C3)ccc2Cl)CC1 [Example 246]
